Laboratory results from patent publication US10519452B2, “Antiviral agent comprising RNA oligonucleotide” (priority 2015, dated 2019).
Like-named read-outs stand apart in the source and are kept apart here. Oligonucleotides are written 5' to 3', each unit as a sugar letter and its base; * is a phosphorothioate linkage, no mark a phosphodiester; rarer units and linkages stand in square brackets, end groups in braces. Plain capitals give the bases only. {PPP} = triphosphate group; r = 2'-OH (RNA)

B1: 5′-OH-Int-NS1: RNA oligonucleotide composed of the base sequence of SEQ ID NO:7 with a hydroxy group at the 5′-end (nucleic acid)
chain: AGUAGAAACAAGGGUGUUUUUUAUUAUUAAAUAAGCUGAAGUGUUUGGAUCCAUUAUGUCUUUGUCACCCUGCUUUUGCU
modifications: RNA, backbone not given here; 5'-hydroxy
B2: 5′-OH-Long_Bend Short: RNA oligonucleotide composed of the base sequence of SEQ ID NO:20 with a hydroxy group at the 5′-end (nucleic acid)
chain: GGUAGACGAAAAAAAAAAAAAAAAAAAAAAAAAAUAAUUUUUUUUUUUUUUUUUUUUUUUUUUCGUUUGCC
modifications: RNA, backbone not given here; 5'-hydroxy
B3: 5′-OH-Long_Bend: Long-length RNA oligonucleotide composed of the base sequence of SEQ ID NO:19 with a hydroxy group at the 5′-end (nucleic acid)
chain: GGUAGACGAAACCAGAUAAAAAAAAAAAAAAAAAAAAAAAAAAUAAUUUUUUUUUUUUUUUUUUUUUUUUUUAUCUGGUUUCGUUUGCC
modifications: RNA, phosphodiester; 5'-hydroxy
B4: 5′-OH-Long_Bend-BPS: 5′-OH-Long_Bend RNA oligonucleotide with part of phosphodiester bonds substituted with phosphorothioate bonds (nucleic acid)
chain: B3 chain
modifications: RNA, backbone not given here; 5'-hydroxy, partial phosphorothioate

Legend:
Assay type in all cases: cell-based
ISG56 = conditions: for change in ISG56 expression: same method as Experimental Example 1, real-time PCR vs GAPDH, FIGS. 5 to 8
interferon-β = conditions: HEK293T cells, 1 μM RNA oligonucleotide with lipofectamine LTX, real-time PCR vs GAPDH; FIG. 3 and FIG. 4
[1] = system: influenza A virus/Puerto Rico/8/34(H1N1)(PR8)
[2] = system: influenza A virus/Puerto Rico/8/34(H1N1)(PR8); remark: listed apart in the source
[3] = A549 cells infected with influenza A virus, FIG. 10 and FIG. 11

| Molecule | change in ISG56 expression (ISG56) | change in interferon-β expression (interferon-β) | also measured |
| --- | --- | --- | --- |
| 5′-OH-iav: RNA oligonucleotide composed of the base sequence of SEQ ID NO:6 with a hydroxy group at the 5′-end (GAGUAGAAACAAGGCUUCGGCCUGCUUUUGCUC; RNA, backbone not given here; 5'-hydroxy) | increase the expression of interferon-β and ISG56 | increase the expression of interferon-β and ISG56 |  |
| 5′-OH-Bend-GC-8 bp-PS: 5′-OH-Bend-GC-8 bp RNA oligonucleotide with phosphodiester bonds substituted with phosphorothioate bonds (rG*rG*rU*rA*rG*rA*rC*rG*rU*rU*rC*rG*rC*rG*rU*rU*rU*rG*rC*rC; 5'-hydroxy, hairpin) | increased the ISG56 expression to a significant level |  | antiviral activity against influenza A virus (Western blot of viral NP and NS1) [1]: showed antiviral activity against influenza A virus in a concentration-dependent manner; antiviral activity against influenza A virus (plaque assay, titer of viruses) [2]: showed antiviral activity against influenza A virus in a concentration-dependent manner |
| 5′-OH-8 bp-Bend-GC-Minimum: Minimum-length double-stranded RNA of SEQ ID NO:3 and SEQ ID NO:4, each with a 5′-hydroxy group (chain 1 GGUAGACG; chain 2 CGUUUGCC; RNA, backbone not given here; 5'-hydroxy ends) | increased the ISG56 expression to a significant level |  |  |
| 5′-OH-16mer-Double Bend: Double strands of two base sequences of SEQ ID NO:18, each with a 5′-hydroxy group; palindromic, two helical bend structures (chain 1 GGUAGACGCGUUUGCC; chain 2 GGUAGACGCGUUUGCC; sugars by position and backbone not given here; 5'-hydroxy ends, palindromic duplex) | increased the ISG56 expression to a significant level |  |  |
| 5′-PPP-iav: RNA oligonucleotide composed of the base sequence of SEQ ID NO:6 with a triphosphate group at the 5′-end (GAGUAGAAACAAGGCUUCGGCCUGCUUUUGCUC; RNA, 5' {PPP}, backbone not given here) | increase the expression of interferon-β and ISG56 | increase the expression of interferon-β and ISG56 |  |
| 5′-OH-Bend-GC: RNA oligonucleotide composed of the base sequence of SEQ ID NO:8 with a hydroxy group at the 5′-end (GGUAGACGCGCGCGUUCGCGCGCGCGUUUGCC; RNA, backbone not given here; 5'-hydroxy, hairpin) |  | increased the interferon-β expression to a significant level |  |
| 5′-OH-Bend-GC-8 bp: Shorter hairpin RNA composed of the base sequence of SEQ ID NO:10 with a hydroxy group at the 5′-end (GGUAGACGUUCGCGUUUGCC; RNA, phosphodiester; 5'-hydroxy, hairpin) |  | increased the interferon-β expression to a significant level |  |
| B1 |  | increased the interferon-β expression to a significant level |  |
| B2 |  |  | concentration at which expression of viral protein was significantly inhibited (Western blot) [1, 3]: 100 nM |
| B3 | increased the ISG56 expression to a significant level |  | concentration at which expression of viral protein was significantly inhibited (Western blot) [1, 3]: ≥ 10 nM; antiviral effect at low concentration compared with positive control (Western blot) ([1]; A549 cells, 10 nM, positive control 0.1 μg/ml poly I:C, FIG. 9A): excellent effect corresponding to the positive control group (poly I:C); antiviral activity against influenza A virus (Western blot of viral NP and NS1) ([1]; A549 cells, 10, 30 or 100 nM, transfected 24 h before infection at 0.1 MOI, FIG. 9A): showed antiviral activity against influenza A virus in a concentration-dependent manner; antiviral effect at low concentration compared with positive control (plaque assay) ([2]; A549 cells, 10 nM, positive control 0.1 μg/ml poly I:C, FIG. 9B): excellent effect corresponding to the positive control group (poly I:C); antiviral activity against influenza A virus (plaque assay, titer of viruses) ([2]; A549 cells, 10, 30 or 100 nM, titer on MDCK cells, FIG. 9B): showed antiviral activity against influenza A virus in a concentration-dependent manner |
| B4 | increased the ISG56 expression to a significant level |  | increase in the ISG56 expression as compared to 5′-OH-Bend-GC-8 bp (ISG56; FIG. 8): about 7 fold; concentration at which expression of viral protein was significantly inhibited (Western blot) [1]: ≥ 1 nM |
